Literature values as cited in patent US20110230399A1, “Methods for Treating Obesity Related Disease” (priority 2008, published 2011).

Assays:
hypothalamic slices = conditions: in vitro
[1] = in vivo

NPY13-36: Neuropeptide Y fragment 13-36; full agonist at the Y2 receptor
NPY release from hypothalamic slices (hypothalamic slices): inhibits NPY release | stimulation of food intake [1]: does not stimulate food intake
